Data: US20080233251A1, “Method and Apparatus for Sterilizing Containers” (priority 2005, published 2008)
Values joined by “and” are separate entries in the source; they are usually repeats but may differ in a detail not shown here. Equal values may be shown once. Read-outs that look alike come from different tables or passages of the source.

Assays:
Format in all cases: cell-based
[1] = system: B. subtilis var. globigii (ATCC 9372); details: surviving count per replicate strip (replicates 1-5), 50° C., inoculum 10^6
From the text: (§1) The following examples illustrate the efficacy of the method of the present invention. The experiments were designed to identify the conditions optimal for polymer sterilization and also explore the boundary areas to determine the conditions limiting the efficacy of the treatment. Each polymer strip was inoculated by drop spotting approximately 100 micro-liters and coating the surface by swabbing the surface of the polyethylene strip. The culture was allowed to dry before sterilization. Each strip of polyethylene was treated by vigorously agitating the strip in the appropriate treatment solutions. Each treated polymer strip was then treated with catalase to inactivate residual peroxide, swabbed and plated using TGE incubated at 35° C. for two days.
In Table One, a NaOH control, an inoculated untreated control, and two methods of the present invention were measured and the results set forth in Table 1. Five replicate polymer strips were used for each of the two methods of the present invention. A log measurement value is provided below each of the non-log values. The first method uses hydrogen peroxide first and then an alkaline solution of sodium hydroxide. The second method uses an alkaline solution of sodium hydroxide first and then hydrogen peroxide. The sterilization was conducted at 50° C.

[2] = system: B. subtilis var. globigii (ATCC 9372); details: for bactericidal effect (in words): text on Table Two; for Average: average of the logCFU/Swab replicates; for logCFU/Swab: log of surviving count per replicate (1-5); for logCFU/Swab / CFU/Swab: unagitated; for CFU/Swab: surviving count per replicate (1-5), contact times in label
Experimental: as §1, with “The” for “The following examples illustrate the efficacy of the method of the present invention. The”
A log measurement value is provided below each of the non-log values. The sterilization was conducted at 50° C.

[3] = system: B. subtilis var. globigii (ATCC 9372); details: 35° C., 30 seconds; for CFU/Swab: surviving count per replicate (1-5)
Experimental: as §1, with “The” for “The following examples illustrate the efficacy of the method of the present invention. The”
In Table Three, a solution of 0.1 Normal potassium hydroxide (KOH) was utilized with a solution of 3% hydrogen peroxide at a temperature of 35° C. for 30 seconds.

Row | Molecule | bactericidal effect (in words) ([2]; 50° C.) | Average [2] | logCFU/Swab ([2]; 50° C.) | CFU/Swab ([2]; 50° C.) | CFU/Swab [3] | also measured
1 | [Na+].[OH-] [1M NaOH Control, sodium hydroxide] | – | – | – | – | – | CFU/Swab [1]: 5,700 CFU/Swab and 210 CFU/Swab
2 | [Na+].[OH-] [50° C. 10 s 0.25M NaOH Control, sodium hydroxide] | no bacteriocidal effect | 6.75 | 6.80 logCFU/Swab and 6.90 logCFU/Swab | 6,300,000 CFU/Swab and 3,800,000 CFU/Swab and 7,900,000 CFU/Swab and 5,400,000 CFU/Swab | – | –
3 | OO [50° C. 30 s 3.5% H2O2 10 s catalase, hydrogen peroxide] | no effect | 6.52 | 6.20 logCFU/Swab and 6.60 logCFU/Swab and 6.70 logCFU/Swab | 1,600,000 CFU/Swab and 4,200,000 CFU/Swab and 4,000,000 CFU/Swab and 3,000,000 CFU/Swab and 5,000,000 CFU/Swab | – | Log reduction ([2]; versus inoculated untreated control (average 6.66)): 0.14
4 | OO [50° C. 30 s 35% H2O2 10 s catalase, hydrogen peroxide] | – | 2.30 | 1.60 logCFU/Swab and 1.30 logCFU/Swab | 40 CFU/Swab and 570 CFU/Swab and 20 CFU/Swab and 270 CFU/Swab and 2700 CFU/Swab | – | log inactivation per 10 seconds of treatment ([2]; rate of kill per unit time, 50° C.): 1.45 log per 10 seconds
5 | OO [H2O2 Control, hydrogen peroxide] | – | – | – | – | 5,200,000 CFU/Swab | –
6 | catalase [Catalase Control] | – | – | – | – | 2,500,000 CFU/Swab | logCFU/Swab ([3]; log of surviving count per replicate (1-5)): 6.40 logCFU/Swab
